Where two headings read alike, the source gives them in different places. One block for each compound: values may come before it.
What was measured:
[1] = test system: P. aeruginosa strain SUS116; test: Minimal Biofilm Inhibitory Concentration (MBIC) assay; assay type: cell-based; conditions: for MBIC Tobramycin: alone
Procedure: (§1) Each isolate was taken from the −80° C. freezer stock and grown for approximately 20 hours in LB Broth at 37° C. shaking water bath. […] The antibiotics and PAAG (22.4% functionalization, 36.9 kDa, 89.74 DDA, 1.63 PDI) were prepared similar to a checkerboard assay (2× concentration to accommodate addition of culture) in MH broth, in a sterile flat-bottomed 96-well plate. For MRSA strain SA5, the PAAG concentrations tested were 0-128 ug/ml. The vancomycin concentrations tested were 0-4 ug/ml. […] The tobramycin concentrations tested were 0-4 ug/ml. Plates were incubated in a 37° C. incubator.
(§2) The fractional inhibitory concentration (FIC) was calculated as; FIC calculation: […]
(§3) and the FIC relationship was defined as; Synergy: FIC≦0.5; Additive: 0.5<FIC≦1.0; or Indifferent: FIC>1.0.

[2] = test system: mupirocin-resistant MRSA strains 2-4C and 2-9A; test: Time-kill assay (vCFU), PAAG and mupirocin; assay type: cell-based, Staphylococcus aureus; conditions: 24-hours
Source text: (§4) Checkerboard and time kill bactericidal studies of mupriocin, methicillin-resistant Staphylococcus aureus strains 2-4C and 2-9A were completed as part of the synergy studies to evaluate potentiation of […] by PAAG (25% functionalized, 43 kDa). Synergistic relationships between PAAG and oxacillin were examined in vitro using the broth microdilution checkerboard assay in 96-well microtiter plates. Serial two-fold dilutions of PAAG and oxacillin were placed in each well with approximately 1×10^5 CFU/ml of S. aureus. Each plate was incubated 20 hours. The MIC was determined as the lowest concentration where no visible bacterial growth was observed. […] Controls for bacterial growth and sterility were included. The FIC for each strain was calculated. The FIC is an interaction coefficient indicating whether the combined inhibitory/bacteristatic effect of drugs is synergistic (FIC of 0.5 or less), additive ([…]), or antagonistic (FIC>4). The FIC is =A+B, where: A=(MIC of X with Y)/(MIC of drug X alone) and B=(MIC of Y with X)/(MIC of drug Y alone). The time-kill assay (vCFU) was performed using the microdilution technique. Approximately 1×10^5 CFU/ml of each bacteria tested was tested against mupriocin alone and in combination. Concentrations of PAAG tested were ½-⅛×MIC. The vCFU was determined after 24 hours treatment using the microtiter technique (8).

MRSA = test: Broth microdilution checkerboard assay, PAAG and oxacillin; assay type: cell-based, Staphylococcus aureus; conditions: for MIC: Staphylococcus aureus, MRSA
Source text: as §4

[3] = test system: clinical isolates of P. aeruginosa; test: Checkerboard assay, PAAG and tobramycin; assay type: cell-based; conditions: Pseudomonas aeruginosa
Procedure: Two independent checkerboard assays screened 64 unique combinations of antimicrobial concentrations in duplicate. […] Bacteria were incubated at 37° C. for 20 hours. The MIC was determined as the lowest concentration with no visible bacterial growth observed.

[4] = test system: P. aeruginosa strain PA01; test: Checkerboard assay, various PAAG's and tobramycin; assay type: cell-based; conditions: Pseudomonas aeruginosa
MRSA strain SA5 = test: Minimal Biofilm Inhibitory Concentration (MBIC) assay; assay type: cell-based, Staphylococcus aureus
Procedure: as §1, §2, §3

SMILES: C[C@H]1[C@H](NC(=O)/C(=N\OC(C)(C)C(=O)O)c2csc(N)n2)C(=O)N1S(=O)(=O)O [Aztreonam]
MBIC Aztreonam (with PAAG) ([1]; in combination with PAAG): 0.06 µg/mL

SMILES: C/C(=C\C(=O)OCCCCCCCCC(=O)O)C[C@@H]1OC[C@H](C[C@@H]2O[C@H]2[C@@H](C)[C@H](C)O)[C@@H](O)[C@H]1O [Mup, mupirocin]
Log10 reduction (CFU/ml) ([2]; strain 2-4C, Mup 8 μg/ml alone): 0 Log10 CFU/ml | Log10 reduction (CFU/ml) ([2]; strain 2-9A, Mup 4 μg/ml alone): 0 Log10 CFU/ml

SMILES: Cc1onc(-c2ccccc2)c1C(=O)N[C@@H]1C(=O)N2[C@@H]1SC(C)(C)[C@@H]2C(=O)O [OXA, oxacillin]
MIC (MRSA; all strains, alone, read-out: MIC oxacillin): ≥ 4 µg/mL | MIC (MRSA; strain 2-1A, alone, read-out: MIC OXA): 8 µg/mL | MIC (MRSA; strain 2-1A, read-out: MIC OXA with PAAG): 1 µg/mL | MIC (MRSA; strain 2-4C, alone, read-out: MIC OXA): 16 µg/mL | MIC (MRSA; strain 2-4C, read-out: MIC OXA with PAAG): 2 µg/mL | MIC (MRSA; strain 2-9A, alone, read-out: MIC OXA): 8 µg/mL | MIC (MRSA; strain 2-9A, read-out: MIC OXA with PAAG): 0.5 µg/mL | MIC (MRSA; strain MW-2, alone, read-out: MIC OXA): 4 µg/mL | MIC (MRSA; strain MW-2, read-out: MIC OXA with PAAG): 1 µg/mL | MIC (MRSA; strain SA05, alone, read-out: MIC OXA): 4 µg/mL | MIC (MRSA; strain SA05, read-out: MIC OXA with PAAG): 1 µg/mL | MIC of oxacillin after addition of PAAG (susceptible range) (MRSA; all strains, PAAG at 2, 8 or 16 μg/ml): ≥ 2 µg/mL

MIC ([3]; strain AMT-32-4, alone, read-out: MIC Tobramycin): 0.31 µg/mL | MIC ([3]; strain AMT-32-4, read-out: MIC Tobramycin (with PAAG)): 0.13 µg/mL | MIC ([3]; strain MR29, alone, read-out: MIC Tobramycin): 0.31 µg/mL | MIC ([3]; strain MR29, read-out: MIC Tobramycin (with PAAG)): 0.25 µg/mL | MIC ([3]; strain MR 51, alone, read-out: MIC Tobramycin): 0.31 µg/mL | MIC ([3]; strain MR 51, read-out: MIC Tobramycin (with PAAG)): 0.13 µg/mL | MIC ([3]; strain PA01, alone, read-out: MIC Tobramycin): 0.31 µg/mL | MIC ([3]; strain PA01, read-out: MIC Tobramycin (with PAAG)): 0.13 µg/mL | MIC ([3]; strain SUS 116, alone, read-out: MIC Tobramycin): 1.25 µg/mL | MIC ([3]; strain SUS 116, read-out: MIC Tobramycin (with PAAG)): 0.13 µg/mL | MIC ([4]; PA01, alone, assay run with PAAG^1, read-out: MIC Tobramycin): 1 µg/mL | MIC ([4]; PA01, alone, assay run with PAAG^2, read-out: MIC Tobramycin): 0.5 µg/mL | MIC ([4]; PA01, alone, assay run with PAAG^3, read-out: MIC Tobramycin): 0.5 µg/mL | MIC ([4]; PA01, with PAAG^1 (27%, 32 kDa), read-out: MIC Tobramycin (with PAAG)): 0.031 µg/mL | MIC ([4]; PA01, with PAAG^2 (31%, 54 kDa), read-out: MIC Tobramycin (with PAAG)): 0.031 µg/mL | MIC ([4]; PA01, with PAAG^3 (25%, 40 kDa), read-out: MIC Tobramycin (with PAAG)): 0.063 µg/mL
SMILES: NC[C@H]1O[C@H](O[C@H]2[C@H](O)[C@@H](O[C@H]3O[C@H](CO)[C@@H](O)[C@H](N)[C@H]3O)[C@H](N)C[C@@H]2N)[C@H](N)C[C@@H]1O [Tobramycin]
MBIC Tobramycin ([1]; PAAG and tobramycin table (TABLE 2)): 6.25 µg/mL | MBIC Tobramycin ([1]; column of the PAAG and aztreonam table (TABLE 1)): 2 µg/mL | MBIC Tobramycin (with PAAG) ([1]; in combination with PAAG): 2 µg/mL

SMILES: CN[C@H](CC(C)C)C(=O)N[C@H]1C(=O)N[C@@H](CC(N)=O)C(=O)N[C@H]2C(=O)N[C@H]3C(=O)N[C@H](C(=O)N[C@H](C(=O)O)c4cc(O)cc(O)c4-c4cc3ccc4O)[C@H](O)c3ccc(c(Cl)c3)Oc3cc2cc(c3O[C@@H]2O[C@H](CO)[C@@H](O)[C@H](O)[C@H]2O[C@H]2C[C@](C)(N)[C@H](O)[C@H](C)O2)Oc2ccc(cc2Cl)[C@H]1O [Vancomycin]
MBIC Vancomycin (MRSA strain SA5; alone): 2 µg/mL | MBIC Vancomycin (with PAAG) (MRSA strain SA5; in combination with PAAG): 1 µg/mL

From patent publication US20170304355A1, “COMPOSITIONS AND METHODS OF USE THEREOF” (priority 2014, published 2017)
